Measured values published in patent US5519163A, “Inhibitors of phosphoinositide-specific phospholipase C” (Merck & Co., Inc., priority 1993, dated 1996).

Columns and labels:
[1] = test system: PLCβ; assay: Inhibition of PLCβ purified from bovine brain (assay mixture as in Example 12); assay type: biochemical; settings: PLCβ from bovine brain substituted for PLCγ; Tables 3 and 4
Protocol: Assay of purified PLCγ1 activitiy. Activity of the purified PLCγ1 was assayed at 30° C. Reactions were never allowed to proceed to more than 10% completion based on the limiting substrate. A typical reaction contained the following: 50 mM HEPES pH7.5, 0.1% Deoxycholate, 3 mM CaCl2, 1 mM EGTA, 0.1 mM DTT with phosphatidyl inositol (1-1000 μM) (PI) and 0.02 uCi [^3 H]-phosphatidyl inositol (PI) as substrate. The phospholipid components were dried under a gentle stream of nitrogen and resuspended in assay buffer. The substrate mix is then vortexed and sonicated (10 sec. with probe sonicator) to disperse the lipid and form micelles. After thermally preequilibrating the assay mixture in the absence of enzyme, the reaction was initiated by adding PLCγ1. Reactions containing 0.2 ml aliquots were terminated by addition of 1/4 volume 1N HCl, 5 mM EGTA and transferred to an ice bath. The quenched reactions are then filtered through a Q sepharose (Pharmacia) column. To prepare the Q sepharose column 1 ml of Q Sepharose slurry is added to a disposable plastic column. The resin is equilibrated by passing through 20 ml of 10 mM NH4 H2 PO4, pH 3.5. The quenched reaction, typically 200 μl, is applied to the column and 3 ml of 10 mM NH4 H2 PO4, pH 3.5 is added, the flow through from this step is collected in a scintillation vial, mixed with 10 ml of scintillation fluid and counted in a Beckman LS3801 scintillation counter.
PLC-β are obtained as described by S. G. Rhee et al., Meth. Enzym., 197:502-511 (1991). Specifically PLC-δ is purified from the cytosolic fraction of bovine brains, while PLC-β is mainly obtained from the particulate fraction. However, since the particulate and cytosolic forms of PLC-β are identical with respect to amino acid sequence, PLC-β-containing fractions pooled during the purification of the cytosolic PLC-δ are combined with the PLC-β fraction from the particulate fraction. A total of 36 bovine brains are used for the purification. Twelve brains are processed at one time.
Step 8: Ion-Exchange Chromatography of PLC-β on DEAE-Cellulose. Because of turbidity, the combined protein solution from Steps 2 and 3 cannot be chromatographed on a DEAE-cellulose column directly. Therefore, two stages of DEAE-cellulose chromatography, a batch procedure followed by a column step, are employed. In the batch step, all of the combined proteins are absorbed on 2 liters of DEAE-cellulose equilibrated with 20 mM Tris-HCl, pH 7.6, containing 5 mM EGTA and 0.1 mM DTT. The DEAE-cellulose slurry is stirred and then collected in a 4-liter sintered glass (coarse) filter funnel. The DEAE-cellulose is washed with the equilibration buffer until it is free of turbid lipid materials and unbound protein. For the column procedure, the washed DEAE-cellulose is removed from the filter funnel, mixed with the equilibration buffer, and poured onto a column already containing a 10 cm high bed of equilibrated DEAE-cellulose (final dimension, 8×45 cm). The column is eluted at a flow rate of 8 ml/min with an 8-liter linear gradient from 0 to 300 mM KCl buffer containing 50 mM Tris-HCl, pH 7.6, 1 mM EGTA, and 0.1 mM DTT. The activity peak is eluted at a KCl concentration of 110 mM. The peak fractions (600 ml) are pooled.
Step 9: Heparin-Agarose Chromatography of PLC-β. The pooled fraction from Step 8 (600 ml) is applied to a heparin-agarose column (5×25 cm) equilibrated with 20 mM HEPES, pH 7.0, 100 mM NaCl, 0.1 mM DTT, and 1 mM EGTA. The column is eluted with a linear gradient from 100 to 500 mM NaCl in 1.5 liters of equilibrium buffer. Peak fractions (310 ml) are pooled and concentrated on an Amicon filter to 27 ml.
Step 10: Reversed-Phase Chromatography of PLC-β on TSK Phenyl-5-PW. Solid KCl is added to the concentrated fractions from Step 9 to give a concentration of 3M, and the mixtures are centrifuged to remove denatured proteins. […]

[2] = target: T1, PLCγ1 (Rattus norvegicus, UniProt P10686); assay: Inhibition of purified recombinant PLCγ1 ([3H]-phosphatidyl inositol hydrolysis); assay type: biochemical; settings: PLCγ1, 30° C., phosphatidyl inositol substrate; Tables 1 and 2
T1 construct: made in house; host or cells: E. coli BL21 (DE3), plasmid pT5T-PLC4 (ATCC 69421)
T1 sequence (P10686 with tags, fused parts or gaps): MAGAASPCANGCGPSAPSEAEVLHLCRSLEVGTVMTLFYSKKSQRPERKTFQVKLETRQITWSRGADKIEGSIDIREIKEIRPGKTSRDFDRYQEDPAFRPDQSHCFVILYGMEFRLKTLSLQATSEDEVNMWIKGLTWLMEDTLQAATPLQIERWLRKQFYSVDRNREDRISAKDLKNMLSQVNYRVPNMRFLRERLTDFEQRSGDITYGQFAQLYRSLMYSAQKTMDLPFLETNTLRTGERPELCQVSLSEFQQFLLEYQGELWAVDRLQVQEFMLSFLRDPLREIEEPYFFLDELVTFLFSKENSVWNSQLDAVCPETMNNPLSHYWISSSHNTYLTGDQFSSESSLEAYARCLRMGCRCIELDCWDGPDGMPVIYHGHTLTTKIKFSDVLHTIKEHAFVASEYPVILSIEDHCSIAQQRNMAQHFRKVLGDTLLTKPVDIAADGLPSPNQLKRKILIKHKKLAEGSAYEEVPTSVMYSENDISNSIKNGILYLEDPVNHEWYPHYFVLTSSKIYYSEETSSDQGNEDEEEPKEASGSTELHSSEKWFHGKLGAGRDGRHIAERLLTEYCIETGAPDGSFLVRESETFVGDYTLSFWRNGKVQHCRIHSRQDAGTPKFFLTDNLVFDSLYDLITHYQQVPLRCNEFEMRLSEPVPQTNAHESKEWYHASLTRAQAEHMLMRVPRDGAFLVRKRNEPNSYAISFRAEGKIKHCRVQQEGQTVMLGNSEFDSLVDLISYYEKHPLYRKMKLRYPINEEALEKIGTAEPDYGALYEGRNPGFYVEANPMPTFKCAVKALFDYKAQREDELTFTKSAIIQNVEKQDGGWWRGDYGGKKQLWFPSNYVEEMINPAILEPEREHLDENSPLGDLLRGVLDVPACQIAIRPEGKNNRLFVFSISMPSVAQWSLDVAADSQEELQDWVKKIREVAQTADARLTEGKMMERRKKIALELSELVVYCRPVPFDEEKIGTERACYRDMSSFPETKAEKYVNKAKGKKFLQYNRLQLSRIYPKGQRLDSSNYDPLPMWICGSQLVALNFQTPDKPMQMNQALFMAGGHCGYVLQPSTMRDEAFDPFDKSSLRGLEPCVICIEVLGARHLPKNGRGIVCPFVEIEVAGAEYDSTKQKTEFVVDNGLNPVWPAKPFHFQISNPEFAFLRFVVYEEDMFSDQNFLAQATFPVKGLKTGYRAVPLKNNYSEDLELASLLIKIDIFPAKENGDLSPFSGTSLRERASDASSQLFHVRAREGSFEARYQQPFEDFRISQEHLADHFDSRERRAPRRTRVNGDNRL
From the text: Subcloning of the PLCγ Coding Sequence. Rat brain cDNA is synthesized using rat brain poly(A)RNA as template by literature protocol (Sanbrook, J. et al., Molecular Cloning: A Laboratry Manual, Cold Spring Harbor Laboratory Press, Cold Spring Harbor, N.Y.). From the published cDNA sequence of rat brain PLCγ1 (Suh, P.-G., Ryu, S. H., Moon, K. H., Suh, H. W., & Rhee, S. G. (1988) Proc. Natl. Acad. Sci. USA 85, 5419-5423), PCR primers, one which contains a BamHI restriction site upstream of the sequence complementary to the 5' end of the PLCγ1 gene (primer 01), and the other one which contains a HindIII site downsteam of the 3' end of the PLCγ gene (primer 04), were synthesized. Carrying out the PCR using these primers (01 and 04) with the above mentioned rat brain cDNA as template, a DNA fragment with the entire rat brain PLCγ1 coding sequence, flanked by a 5' BamHI site and a 3' HindIII site, is generated. This BamHI-HindIII fragment containing the coding sequence of PLCγ was subcloned into pBSII(S/K)+, generating pPLC1. The rest of the manipulations were accomplished using PCR to generate the appropriate DNA fragment. […]

SMILES	IC50 [1] [µM]	IC50 [2] [µM]
O=P(O)(O)C(O)c1cccc(Oc2ccccc2)c1 (stereo not shown) [Example 2, 1-Hydroxy-1-(3-phenoxyphenyl)methylphosphonic acid]	> 300	
O=P(O)(O)C(O)c1cccc(Oc2ccc(Cl)c(Cl)c2)c1 (stereo not shown) [Example 3, 1-Hydroxy-1-(3-(3,4-dichlorophenoxy)phenyl)methylphosphonic acid]	110	
O=P(O)(O)C(O)c1cccc(Oc2ccc(Cl)cc2)c1 (stereo not shown) [Example 4, 1-Hydroxy-1-(3-(4-chlorophenoxy)phenyl)methylphosphonic acid]	65	
O=P(O)(O)C(O)c1cccc(Oc2ccccc2Cl)c1 (stereo not shown) [Example 5, 1-Hydroxy-1-(3-(2-chlorophenoxy)phenyl)methylphosphonic acid]	38	
COc1ccc(Oc2cccc(C(O)P(=O)(O)O)c2)cc1 (stereo not shown) [Example 6, 1-Hydroxy-1-(3-(4-methoxyphenoxy)phenyl)methylphosphonic acid]	717	
CCc1cccc(Oc2ccc(C(O)P(=O)(O)O)cc2)c1 (stereo not shown) [Example 10, 1-Hydroxy-1-(4-(3-ethylphenoxy)phenyl)methylphosphonic acid]	74	
O=P(O)(O)C(O)c1ccc(Oc2ccccc2)cc1 (stereo not shown) [reference compound]	> 300	> 300

Stronger by IC50 [1], values ahead:

IC50 [1] [µM]	IC50 [2] [µM]	SMILES
31		Cc1ccc(Oc2cccc(C(O)P(=O)(O)O)c2)cc1 (stereo not shown) [Example 7, 1-Hydroxy-1-(3-(4-methylphenoxy)phenyl)methylphosphonic acid]
24		O=P(O)(O)C(O)c1cccc(Oc2cccc(Cl)c2)c1 (stereo not shown) [Example 1, 1-Hydroxy-1-(3-(3-chlorophenoxy)phenyl)methylphosphonic acid]
11		COc1cccc(Oc2ccc(C(O)P(=O)(O)O)cc2)c1 (stereo not shown) [Example 11, 1-Hydroxy-1-(4-(3-methoxyphenoxy)phenyl)methylphosphonic acid]
9		O=P(O)(O)C(O)c1ccc(Oc2cccc(Cl)c2)cc1 (stereo not shown) [Example 9, 1-Hydroxy-1-(4-(3-chlorophenoxy)phenyl)methylphosphonic acid]
7		O=P(O)(O)C(O)c1cccc(Oc2ccc(O)cc2)c1 (stereo not shown) [Example 8, 1-Hydroxy-1-(3-(4-hydroxyphenoxy)phenyl)methylphosphonic acid]
